Our source for the IC50 values is US5741781A, “Mercaptoalkanoyldipeptide compounds” (Adir et Compagnie, priority 1995, dated 1998).

For experiment [1], the target named is peptidyldipeptidase A (ACE) (Homo sapiens, UniProt P12821). The experiment in a line: Inhibitory effect in vitro on peptidyldipeptidase A, Z-Phe-His-Leu as substrate. Type of experiment: biochemical. The method, then:
The inhibitory properties of the compounds of the invention are measured using [^3 H]-D-Ala^2 -Leu-encephalin as substrate for neutral endopeptidase, in accordance with the protocol described by Llorens et al. (Biochem. Biophys. Res. Commun., 96, (1980), 1710 sqq), and Z-Phe-His-Leu as substrate in the case of peptidyldipeptidase A in accordance with the protocol described in Biochem. Biophys. Acta, 206, (1970), 136-142.

Experiment [2] deals with neutral endopeptidase (NEP) (Homo sapiens, UniProt P08473). Description: Inhibitory effect in vitro on neutral endopeptidase, [3H]-D-Ala2-Leu-encephalin as substrate. Type of experiment: biochemical. As to conditions: in vitro.
Sequence of neutral endopeptidase (NEP) (P08473 whole entry, species assumed): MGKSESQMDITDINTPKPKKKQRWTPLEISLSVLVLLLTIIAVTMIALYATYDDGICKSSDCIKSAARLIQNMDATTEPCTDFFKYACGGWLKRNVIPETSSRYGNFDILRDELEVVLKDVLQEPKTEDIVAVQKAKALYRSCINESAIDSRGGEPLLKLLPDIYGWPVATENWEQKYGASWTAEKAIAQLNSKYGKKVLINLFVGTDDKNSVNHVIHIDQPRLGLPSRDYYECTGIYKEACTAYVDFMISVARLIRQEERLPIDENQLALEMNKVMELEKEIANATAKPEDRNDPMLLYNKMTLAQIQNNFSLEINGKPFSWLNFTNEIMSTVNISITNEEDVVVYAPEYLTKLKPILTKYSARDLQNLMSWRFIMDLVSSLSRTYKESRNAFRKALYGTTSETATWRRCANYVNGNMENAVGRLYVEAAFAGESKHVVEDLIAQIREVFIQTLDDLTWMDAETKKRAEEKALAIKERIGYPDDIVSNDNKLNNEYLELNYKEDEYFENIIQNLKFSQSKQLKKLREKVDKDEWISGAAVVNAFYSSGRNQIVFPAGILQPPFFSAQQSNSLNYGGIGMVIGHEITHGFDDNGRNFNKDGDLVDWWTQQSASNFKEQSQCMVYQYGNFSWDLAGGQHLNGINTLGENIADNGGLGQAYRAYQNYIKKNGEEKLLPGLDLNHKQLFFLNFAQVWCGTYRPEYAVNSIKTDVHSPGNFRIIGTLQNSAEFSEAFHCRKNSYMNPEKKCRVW

Molecules are shown by their SMILES.

Sequence of peptidyldipeptidase A (ACE) (P12821 30-1306, species assumed): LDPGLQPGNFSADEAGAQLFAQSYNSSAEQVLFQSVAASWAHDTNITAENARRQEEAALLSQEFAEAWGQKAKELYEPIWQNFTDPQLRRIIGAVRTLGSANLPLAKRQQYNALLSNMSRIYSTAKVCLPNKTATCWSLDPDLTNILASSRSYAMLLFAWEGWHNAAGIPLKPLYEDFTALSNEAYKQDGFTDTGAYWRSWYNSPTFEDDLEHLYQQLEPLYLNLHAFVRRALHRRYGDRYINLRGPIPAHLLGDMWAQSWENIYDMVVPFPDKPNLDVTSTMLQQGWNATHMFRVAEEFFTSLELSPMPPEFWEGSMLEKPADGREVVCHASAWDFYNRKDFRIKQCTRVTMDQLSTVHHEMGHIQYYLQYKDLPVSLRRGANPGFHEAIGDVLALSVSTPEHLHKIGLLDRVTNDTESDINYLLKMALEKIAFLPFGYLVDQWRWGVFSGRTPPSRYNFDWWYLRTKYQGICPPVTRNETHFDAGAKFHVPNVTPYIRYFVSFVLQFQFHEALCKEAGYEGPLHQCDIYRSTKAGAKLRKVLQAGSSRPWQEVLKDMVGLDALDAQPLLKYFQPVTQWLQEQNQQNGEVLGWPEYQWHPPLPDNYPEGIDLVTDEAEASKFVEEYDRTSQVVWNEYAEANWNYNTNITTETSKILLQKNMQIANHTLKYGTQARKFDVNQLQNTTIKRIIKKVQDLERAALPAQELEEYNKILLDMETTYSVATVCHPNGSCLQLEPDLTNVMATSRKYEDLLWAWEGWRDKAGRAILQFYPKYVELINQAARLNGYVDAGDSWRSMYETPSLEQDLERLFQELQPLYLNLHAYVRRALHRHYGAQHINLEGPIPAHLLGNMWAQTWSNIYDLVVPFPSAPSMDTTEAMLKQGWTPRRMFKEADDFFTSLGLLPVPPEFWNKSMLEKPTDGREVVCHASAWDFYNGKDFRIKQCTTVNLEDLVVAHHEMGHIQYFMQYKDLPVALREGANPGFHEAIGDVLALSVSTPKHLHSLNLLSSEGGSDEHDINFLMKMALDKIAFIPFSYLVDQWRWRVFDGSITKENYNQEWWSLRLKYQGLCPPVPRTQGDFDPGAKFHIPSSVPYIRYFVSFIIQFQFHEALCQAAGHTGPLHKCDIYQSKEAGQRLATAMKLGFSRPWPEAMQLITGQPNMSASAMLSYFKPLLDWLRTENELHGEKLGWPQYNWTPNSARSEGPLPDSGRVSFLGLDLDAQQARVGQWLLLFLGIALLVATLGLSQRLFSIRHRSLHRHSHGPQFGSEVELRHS

For the compound `O=C(NCC(=O)N1C(c2ccccc2)CC[C@H]1C(=O)O)C(S)Cc1ccccc1` (stereo partly shown) [Example 3, N-[N-(2-Mercapto-3-phenylpropanoyl)glycyl]-5-phenylproline], the IC50 in experiment [1] is 0.55 ± 0.05 nM; in experiment [2], 1.6 ± 0.3 nM.
The like results for `O=C(NCC(=O)N1C(c2ccccc2O)CC[C@H]1C(=O)O)C(S)Cc1ccccc1` (stereo partly shown) [Example 5, N-[N-(2-Mercapto-3-phenylpropanoyl)glycyl]-5-(ortho-hydroxyphenyl)-proline] were, in that order, 0.5 ± 0.1 nM and 1.1 ± 0.3 nM.
On the same counts, the results for `O=C(NCC(=O)N1C(c2ccccc2O)CC[C@H]1C(=O)O)C(S)Cc1ccc(O)cc1` (stereo partly shown) [Example 7, N-[N-[2-Mercapto-3-(para-hydroxyphenyl)propanoyl]glycyl]-5-(ortho-hydroxyphenyl)proline] are 0.35 ± 0.05 nM and 4.3 ± 0.3 nM.
On the same counts, the results for `O=C(NCC(=O)N1C(c2ccccc2)CC[C@H]1C(=O)O)C(S)Cc1ccc(O)cc1` (stereo partly shown) [Example 10, N-[N-[2-Mercapto-3-(para-hydroxyphenyl)propanoyl]glycyl]-5-phenylproline] are 4.2 ± 0.4 nM and 3.4 ± 0.8 nM.
Turning to `Nc1ccc(CC(S)C(=O)NCC(=O)N2C(c3ccccc3)CC[C@H]2C(=O)O)cc1` (stereo partly shown) [Example 14, N-[N-[2-Mercapto-3-(para-aminophenyl)propanoyl]glycyl]-5-phenylproline], the IC50 amounted to 3.5 ± 0.5 nM in experiment [1] and 1.8 ± 0.4 nM in experiment [2].
The like results for `Nc1ccc(C2CC[C@@H](C(=O)O)N2C(=O)CNC(=O)C(S)Cc2ccc(O)cc2)cc1` (stereo partly shown) [Example 16, N-[N-[2-Mercapto-3-(para-hydroxyphenyl)propanoyl]glycyl]-5-(para-aminophenyl)proline] were, in that order, 23 ± 3 nM and 26 ± 3 nM.
On the same counts, the results for `O=C(NCC(=O)N1C(c2cccc(O)c2)CC[C@H]1C(=O)O)C(S)Cc1ccc(O)cc1` (stereo partly shown) [Example 18, N-[N-[2-Mercapto-3-(para-hydroxyphenyl)propanoyl]glycyl]-5-(metahydroxyphenyl)proline] are 0.7 ± 0.2 nM and 1.6 ± 0.3 nM.
The like results for `O=C(NCC(=O)N1C(c2cccc(O)c2)CC[C@H]1C(=O)O)C(S)Cc1ccccc1` (stereo partly shown) [Example 20, N-[N-(2-Mercapto-3-phenylpropanoyl)glycyl]-5-(meta-hydroxyphenyl)proline] were, in that order, 1.4 ± 0.7 nM and 2.4 ± 0.8 nM.
In the case of `O=C(NCC(=O)N1C(c2ccc(O)cc2)CC[C@H]1C(=O)O)C(S)Cc1ccc(O)cc1` (stereo partly shown) [Example 22, N-[N-[2-Mercapto-3-(para-hydroxyphenyl)propanoyl]glycyl]-5,(para-hydroxyphenyl)proline], the values for the IC50 in experiment [1] and in experiment [2] were 0.45 ± 0.05 nM and 6 ± 1 nM, respectively.
The like results for `O=C(NCC(=O)N1C(c2ccccc2O)CC[C@H]1C(=O)O)C(S)Cc1ccc(Cl)cc1` (stereo partly shown) [Example 24] were, in that order, 0.9 ± 0.06 nM and 1.2 ± 0.4 nM.
On the same counts, the results for `COc1ccc(CC(S)C(=O)NCC(=O)N2C(c3ccccc3O)CC[C@H]2C(=O)O)cc1` (stereo partly shown) [Example 26, N-[N-[2-Mercapto-3-(para-methoxyphenyl)propanoyl]glycyl]-5-(orthohydroxyphenyl)proline] are 0.4 ± 0.05 nM and 2.3 ± 0.3 nM.
With `COc1ccc(CC(S)C(=O)NCC(=O)N2C(c3ccccc3OC)CC[C@H]2C(=O)O)cc1` (stereo partly shown) [Example 28, N-[N-[2-Mercapto-3-(para-methoxyphenyl)propanoyl]glycyl]-5-(orthomethoxyphenyl)proline], the results for the IC50 in experiment [1] and in experiment [2] were 2.2 ± 0.2 nM and 2.5 ± 0.6 nM, respectively.
On the same counts, the results for `Cc1ccc(C2CC[C@@H](C(=O)O)N2C(=O)CNC(=O)C(S)Cc2ccccc2)cc1` (stereo partly shown) [Example 30, N-[N-(2-Mercapto-3-phenylpropanoyl)glycyl]-5-(para-methylphenyl)proline] are 8.2 ± 0.5 nM and 10 ± 2 nM.
The like results for `Cc1ccc(C2CC[C@@H](C(=O)O)N2C(=O)CNC(=O)C(S)Cc2ccc(O)cc2)cc1` (stereo partly shown) [Example 32, N-[N-[2-Mercapto-3-(para-hydroxyphenyl)propanoyl]glycyl]-5-(para-methylphenyl)proline] were, in that order, 3.2 ± 0.4 nM and 5 ± 0.5 nM.
